Results reported in paper PMC11311990, “Identification of Ribonuclease Inhibitors for the Control of Pathogenic Bacteria” (International Journal of Molecular Sciences, 2024).

Key:
RNase R = target: T1, RNase R (Escherichia coli, UniProt P21499); type: biochemical; conditions: 10 mM compound, 10 nM enzyme, 10 nM poly(A), 1 mM MgCl2, 100 mM KCl, pH 8, 37 °C, DMSO
T1 construct: gene rnr; full-length recombinant, N-terminal His tag (pET15b derivative), expressed in E. coli BL21(DE3), IMAC purified

RNase II = target: T2, RNase II (Escherichia coli, UniProt P30850); type: biochemical; conditions: 10 mM compound, 10 nM enzyme, 10 nM poly(A), 1 mM MgCl2, 100 mM KCl, pH 8, 37 °C, DMSO
T2 construct: gene rnb; full-length recombinant, N-terminal His tag (pET15b derivative), expressed in E. coli BL21(DE3), IMAC purified
T2 sequence (P30850 whole entry): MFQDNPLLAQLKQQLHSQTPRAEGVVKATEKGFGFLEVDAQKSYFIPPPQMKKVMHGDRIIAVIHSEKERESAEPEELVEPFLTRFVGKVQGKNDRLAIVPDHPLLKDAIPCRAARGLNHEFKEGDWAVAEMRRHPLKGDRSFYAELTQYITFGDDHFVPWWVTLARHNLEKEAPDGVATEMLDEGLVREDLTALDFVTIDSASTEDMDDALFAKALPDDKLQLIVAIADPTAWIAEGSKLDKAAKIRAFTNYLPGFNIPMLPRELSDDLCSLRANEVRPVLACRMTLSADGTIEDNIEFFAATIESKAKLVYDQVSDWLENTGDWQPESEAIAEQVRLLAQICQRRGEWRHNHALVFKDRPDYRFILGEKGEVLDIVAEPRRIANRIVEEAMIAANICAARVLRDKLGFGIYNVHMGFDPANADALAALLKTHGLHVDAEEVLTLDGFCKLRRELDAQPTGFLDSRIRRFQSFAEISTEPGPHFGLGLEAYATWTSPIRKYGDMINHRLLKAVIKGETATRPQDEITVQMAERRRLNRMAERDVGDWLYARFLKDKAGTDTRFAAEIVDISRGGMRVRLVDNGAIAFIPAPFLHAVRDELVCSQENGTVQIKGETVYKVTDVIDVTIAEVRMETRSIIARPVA

T1 sequence (P21499 2-813): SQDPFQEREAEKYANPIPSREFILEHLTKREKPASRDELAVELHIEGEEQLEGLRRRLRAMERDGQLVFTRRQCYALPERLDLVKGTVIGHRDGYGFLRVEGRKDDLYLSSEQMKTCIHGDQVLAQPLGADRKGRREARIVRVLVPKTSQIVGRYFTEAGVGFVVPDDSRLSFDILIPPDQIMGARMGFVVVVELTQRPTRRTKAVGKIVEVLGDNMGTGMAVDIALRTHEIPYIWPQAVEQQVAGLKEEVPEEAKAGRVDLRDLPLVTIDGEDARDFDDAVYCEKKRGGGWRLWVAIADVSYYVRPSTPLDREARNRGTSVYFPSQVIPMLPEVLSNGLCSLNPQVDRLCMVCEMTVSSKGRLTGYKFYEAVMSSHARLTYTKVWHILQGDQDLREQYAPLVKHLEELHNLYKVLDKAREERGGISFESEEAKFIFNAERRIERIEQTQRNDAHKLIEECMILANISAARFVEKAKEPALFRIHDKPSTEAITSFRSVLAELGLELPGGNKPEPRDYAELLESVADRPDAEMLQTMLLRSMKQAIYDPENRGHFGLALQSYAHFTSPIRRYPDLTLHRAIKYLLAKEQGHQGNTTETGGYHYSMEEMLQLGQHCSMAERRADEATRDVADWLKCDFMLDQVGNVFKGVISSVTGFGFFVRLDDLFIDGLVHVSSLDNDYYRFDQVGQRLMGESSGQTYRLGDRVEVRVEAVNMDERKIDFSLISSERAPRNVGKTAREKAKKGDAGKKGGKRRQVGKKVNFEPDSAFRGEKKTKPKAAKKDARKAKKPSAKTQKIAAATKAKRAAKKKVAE

SMILES	gel exoribonuclease assay, 5'-32P 35-nt poly(A) (RNase R)	gel exoribonuclease assay, 5'-32P 35-nt poly(A) (RNase II)
Cc1nc(S)nc(O)c1Oc1cccc(C(F)(F)F)c1 [SPB04215, 2-mercapto-6-methyl-5-[3-(trifluoromethyl)phenoxy]pyrimidin-4-ol]	SPB04215 and SPB04462 compounds were also effective in inhibiting RNase R activity	with RNase II being also affected, but to a lesser extent
CC(=O)Nc1nc(C)c(Oc2cccc(C(F)(F)F)c2)c(O)n1 [SPB04462, N1-{4-hydroxy-6-methyl-5-[3-(trifluoromethyl)phenoxy]pyrimidin-2-yl}acetamide]	SPB04215 and SPB04462 compounds were also effective in inhibiting RNase R activity	with RNase II being also affected, but to a lesser extent
